Some results are limits rather than exact numbers.

As usually defined, the inhibition is the percentage by which the read-out fell short of the control. Low values mean a response near the control, high ones a response far below the control.

Tested on in one data set: not listed separately
Put plainly: physchem. To be noted: buffered solution containing 5% DMSO.
`O=C1C(Nc2ccccc2)=C(NS(=O)(=O)c2ccccc2)C(=O)c2ccccc21` came in with a pKa at 100 µM of 9.5. The same measure, in the same setting: the result for `Cc1cc(C)cc(NC2=C(NS(=O)(=O)c3ccccc3)C(=O)c3ccccc3C2=O)c1` reads 9.2.

With `O=C1C(Nc2ccc(Br)cc2)=C(NS(=O)(=O)c2ccccc2)C(=O)c2ccccc21`, the pKa at 100 µM came out at 10.4.

`COCCNC1=C(NS(=O)(=O)c2ccccc2)C(=O)c2ccccc2C1=O` registered a pKa at 100 µM of 9.8.

`O=C1C(NC2CCCC2)=C(NS(=O)(=O)c2ccccc2)C(=O)c2ccccc21` registered a pKa at 100 µM of 10.1. Take `O=C1C(NCc2ccccc2)=C(NS(=O)(=O)c2ccccc2)C(=O)c2ccccc21`: the pKa at 100 µM worked out at 10.4.

`O=C1C(NS(=O)(=O)c2ccccc2)=C(Oc2ccccc2)C(=O)c2ccccc21` gave a pKa at 100 µM of 5. On the same count and under the same terms, the result for `Cc1cc(C)cc(OC2=C(NS(=O)(=O)c3ccccc3)C(=O)c3ccccc3C2=O)c1` reads 5. The same measure, in the same setting: the result for `O=C1C(NS(=O)(=O)c2ccccc2)=C(Oc2ccc(Br)cc2)C(=O)c2ccccc21` reads 5. The same measure, in the same setting: the same measure for `O=C1C(NS(=O)(=O)c2ccccc2)=C(c2ccccc2Cl)C(=O)c2ccccc21`: 4.9; for `O=C1C(NS(=O)(=O)c2ccccc2)=C(c2cccc(Cl)c2)C(=O)c2ccccc21`: 4.5. As for `O=C1C(NS(=O)(=O)c2ccccc2)=C(c2ccc(Cl)cc2)C(=O)c2ccccc21`, the pKa at 100 µM stood at 5. With `O=Cc1cccc(C2=C(NS(=O)(=O)c3ccccc3)C(=O)c3ccccc3C2=O)c1`, the pKa at 100 µM turned out to be 5. On the same count and under the same terms, the result for `O=Cc1ccc(C2=C(NS(=O)(=O)c3ccccc3)C(=O)c3ccccc3C2=O)cc1` reads 4.6. The same measure, in the same setting: the same measure for `O=C1C(NS(=O)(=O)c2ccccc2)=C(c2ccco2)C(=O)c2ccccc21`: 5.1. On the same count and under the same terms, the same measure for `O=C1C(NS(=O)(=O)c2ccccc2)=C(c2ccoc2)C(=O)c2ccccc21`: 5.

Consider `Cc1cc(C)cc(NC2=C(NS(C)(=O)=O)C(=O)c3ccccc3C2=O)c1`, for which the pKa at 100 µM was found to be 9.5. Consider `Cc1cc(C)cc(NC2=C(NS(=O)(=O)C3CCCCC3)C(=O)c3ccccc3C2=O)c1`, for which the pKa at 100 µM was 10.6. Still for that read-out and setting: the same measure for `Cc1cc(C)cc(NC2=C(NS(=O)(=O)c3ccccc3C)C(=O)c3ccccc3C2=O)c1`: 9.3; for `Cc1cc(C)cc(NC2=C(NS(=O)(=O)c3ccccc3[N+](=O)[O-])C(=O)c3ccccc3C2=O)c1`: 7.9; for `Cc1cc(C)cc(NC2=C(NS(=O)(=O)c3c(F)cccc3F)C(=O)c3ccccc3C2=O)c1`: 8.4.

Turning to `Cc1cc(C)cc(NC2=C(NS(=O)(=O)c3cccc([N+](=O)[O-])c3)C(=O)c3ccccc3C2=O)c1`, the pKa at 100 µM stood at 8.6.

The compound `Cc1ccc(S(=O)(=O)NC2=C(Nc3cc(C)cc(C)c3)C(=O)c3ccccc3C2=O)cc1` returned a pKa at 100 µM of 9.7. The same measure, in the same setting: the same measure for `Cc1cc(C)cc(NC2=C(NS(=O)(=O)c3ccc(F)cc3)C(=O)c3ccccc3C2=O)c1`: 9.9. The same measure, in the same setting: the result for `Cc1cc(C)cc(NC2=C(NS(=O)(=O)c3ccco3)C(=O)c3ccccc3C2=O)c1` reads 8.3; that for `Cc1cc(C)cc(NC2=C(NS(=O)(=O)Cc3ccccc3)C(=O)c3ccccc3C2=O)c1`, 10; that for `O=Cc1cccc(C2=C(NC(=O)c3ccccc3)C(=O)c3ccccc3C2=O)c1`, 10.9. Still for that read-out and setting: the same measure for `O=C(NC1=C(c2ccoc2)C(=O)c2ccccc2C1=O)c1ccccc1`: 12.1; for `O=Cc1cccc(C2=C(NC(=O)Cc3ccccc3)C(=O)c3ccccc3C2=O)c1`: 11.4; for `O=C(Cc1ccccc1)NC1=C(c2ccoc2)C(=O)c2ccccc2C1=O`: 12.5. As for `Cc1cc(C)cc(NC2=C(NS(=O)(=O)c3ccccc3)C(=O)c3cccc([N+](=O)[O-])c3C2=O)c1`, the pKa at 100 µM amounted to 8.2. Still for that read-out and setting: the same measure for `Cc1cc(C)cc(NC2=C(NS(=O)(=O)c3ccccc3)C(=O)c3ccc([N+](=O)[O-])cc3C2=O)c1`: 7.5; for `Cc1cc(C)cc(NC2=C(NS(=O)(=O)c3ccccc3)C(=O)c3cc([N+](=O)[O-])ccc3C2=O)c1`: 8; for `Cc1cc(C)cc(NC2=C(NS(=O)(=O)c3ccccc3)C(=O)c3c(cccc3[N+](=O)[O-])C2=O)c1`: 8.6. On the same count and under the same terms, the result for `O=C1C(Nc2ccccc2)=C(NS(=O)(=O)c2ccccc2)C(=O)c2c1cccc2[N+](=O)[O-]` reads 8.4.

Take `Cc1cc(C)cc(NC2=C(NS(=O)(=O)c3ccccc3)C(=O)c3c(N)cccc3C2=O)c1`: the pKa at 100 µM was found to be 8.4. The same measure, in the same setting: the same measure for `Nc1cccc2c1C(=O)C(NS(=O)(=O)c1ccccc1)=C(Nc1ccccc1)C2=O`: 8.2.

A further data set concerns the target T1, NAT1 (arylamine N-acetyltransferase 1) (Homo sapiens, UniProt P18440).
T1 sequence (P18440 whole entry): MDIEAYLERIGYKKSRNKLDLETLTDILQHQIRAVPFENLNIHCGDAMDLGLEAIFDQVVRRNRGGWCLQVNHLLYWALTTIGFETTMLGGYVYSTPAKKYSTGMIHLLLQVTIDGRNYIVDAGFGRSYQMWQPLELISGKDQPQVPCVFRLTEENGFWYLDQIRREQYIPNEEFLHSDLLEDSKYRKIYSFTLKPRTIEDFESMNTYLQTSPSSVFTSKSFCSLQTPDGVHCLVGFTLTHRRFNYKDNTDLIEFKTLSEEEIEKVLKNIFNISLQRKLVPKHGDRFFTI
Put plainly: in vitro. Particulars: ZR-75-1 cells, probe arylamine and AcCoA.
`Cc1cc(C)cc(NC2=C(NS(=O)(=O)c3ccccc3)C(=O)c3ccccc3C2=O)c1` showed an inhibition at 1 µM of over 50%.

`Cc1cc(C)cc(NC2=C(NS(=O)(=O)c3ccc(F)cc3)C(=O)c3ccccc3C2=O)c1`: the inhibition at 1 µM was over 50%.

For the compound `Cc1cc(C)cc(NC2=C(NS(=O)(=O)c3ccccc3)C(=O)c3cc(N)ccc3C2=O)c1`, the inhibition at 1 µM is over 50%. Same read-out and setting: the result for `Cc1cc(C)cc(NC2=C(NS(=O)(=O)c3ccccc3)C(=O)c3c(N)cccc3C2=O)c1` reads over 50%.

The target in the next data set is T2, NAT2 (arylamine N-acetyltransferase 2) (Homo sapiens, UniProt P11245).
T2 sequence (P11245 whole entry): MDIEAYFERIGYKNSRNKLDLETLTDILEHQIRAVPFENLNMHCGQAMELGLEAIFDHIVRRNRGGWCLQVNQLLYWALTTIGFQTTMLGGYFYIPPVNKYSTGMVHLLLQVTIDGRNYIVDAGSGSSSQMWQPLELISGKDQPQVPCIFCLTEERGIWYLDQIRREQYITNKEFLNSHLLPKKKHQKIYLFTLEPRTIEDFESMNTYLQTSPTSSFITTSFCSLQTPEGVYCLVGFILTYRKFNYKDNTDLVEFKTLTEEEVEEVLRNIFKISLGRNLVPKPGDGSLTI
The data set can be described thus: in vitro. To be noted: probe arylamine and AcCoA.
Take `O=Cc1cccc(C2=C(NC(=O)c3ccccc3)C(=O)c3ccccc3C2=O)c1`: the inhibition at 30 µM was over 50%.

Compound `O=C(NC1=C(c2ccoc2)C(=O)c2ccccc2C1=O)c1ccccc1` displayed an inhibition at 30 µM of over 50%.

The values above are taken from ChEMBL document CHEMBL3259557, “Structure-activity relationships and colorimetric properties of specific probes for the putative cancer biomarker human arylamine N-acetyltransferase 1” (Bioorg Med Chem, 2014).
